In this data set the test system is CCRIS mutagenicity, Ames/micronucleus/aberration tests. The data set is described as follows: CCRIS mutagenicity studies.
The mark [1] stands for this setting: Test System: AMES SALMONELLA TYPHIMURIUM, Strain/Indicator: TA100, Metabolic Activation: NONE, Method: PREINCUBATION
Setting [2] is: Test System: AMES SALMONELLA TYPHIMURIUM, Strain/Indicator: TA98, Metabolic Activation: RAT, LIVER, S-9, AROCLOR 1254, Method: STANDARD PLATE.
Setting [3] is: Test System: AMES SALMONELLA TYPHIMURIUM, Strain/Indicator: TA98, Metabolic Activation: NONE, Method: STANDARD PLATE.
The mark [4] stands for this setting: Test System: AMES SALMONELLA TYPHIMURIUM, Strain/Indicator: TA100, Metabolic Activation: NONE, Method: STANDARD PLATE.

Calls of active or inactive are those of the source. The rule behind the calls is not given here.

Consider `CC(C)(C)C1=CC(=CC=C2C=C(C(C)(C)C)C(=O)C(C(C)(C)C)=C2)C=C(C(C)(C)C)C1=O`, for which the mutagenic call by setting is: (Test System: AMES SALMONELLA TYPHIMURIUM, Strain/Indicator: TA98, Metabolic Activation: NONE, Method: PREINCUBATION) “inactive; negative”; (Test System: AMES SALMONELLA TYPHIMURIUM, Strain/Indicator: TA98, Metabolic Activation: RAT, LIVER, S-9, Method: PREINCUBATION) “inactive; negative”; under setting [1], “inactive; negative”; (Test System: AMES SALMONELLA TYPHIMURIUM, Strain/Indicator: TA100, Metabolic Activation: RAT, LIVER, S-9, Method: PREINCUBATION) “inactive; negative”.
With `O=C(O)[C@H](O)[C@@H](O)[C@H](O)[C@H](O)CO`, the mutagenic call was “inactive; negative” (Test System: AMES SALMONELLA TYPHIMURIUM, Strain/Indicator: TA97, Metabolic Activation: NONE, Method: PREINCUBATION); “inactive; negative” (Test System: AMES SALMONELLA TYPHIMURIUM, Strain/Indicator: TA97, Metabolic Activation: RAT, LIVER, S-9, AROCLOR 1254, Method: PREINCUBATION); “inactive; negative” (Test System: AMES SALMONELLA TYPHIMURIUM, Strain/Indicator: TA102, Metabolic Activation: NONE, Method: PREINCUBATION); “inactive; negative” (Test System: AMES SALMONELLA TYPHIMURIUM, Strain/Indicator: TA102, Metabolic Activation: RAT, LIVER, S-9, AROCLOR 1254, Method: PREINCUBATION).
Take `Cc1cnc2c(cc(C)c3c2nc(N)n3C)n1`: the mutagenic call under setting [2] was “active; positive”.
In the case of `Cc1nc2ccc(NCCN(C)C)c3c(=O)c4cc(O)ccc4n1c23`, the mutagenic call (Test System: CHINESE HAMSTER V-79, Strain/Indicator: V-79 (HGPRT)/6-THIOGUANINE, Metabolic Activation: NONE) is “active; positive”.
As to `NC(=O)N(CCCC(=O)O)N=O`, the mutagenic call was “active; positive” under setting [1]; “active; positive” (Test System: AMES SALMONELLA TYPHIMURIUM, Strain/Indicator: TA1535, Metabolic Activation: NONE, Method: PREINCUBATION); “active; positive” (Test System: E. COLI B, Strain/Indicator: H/R30R, Metabolic Activation: NONE); “active; positive” (Test System: E. COLI B, Strain/Indicator: HS30R, Metabolic Activation: NONE).
Consider `C=CCNC1=C2C[C@@H](C)C[C@H](OC)[C@H](O)[C@@H](C)/C=C(\C)[C@H](OC(N)=O)[C@@H](OC)/C=C\C=C(/C)C(=O)NC(=CC1=O)C2=O`, for which the mutagenic call (Test System: Mouse lymphoma, Strain/Indicator: L5178Y (tk+/tk-), Metabolic Activation: None, Method: Suspension/plate) was “active; positive” and the mutagenic call (Test System: Mouse lymphoma, Strain/Indicator: L5178Y (tk+/tk-), Metabolic Activation: Rat, Liver, S-9, Aroclor 1254, Method: Suspension/plate) was “inactive; negative”.
Regarding `c1ccc(-c2cccc(-c3ccccn3)n2)nc1`, the mutagenic call (Test System: AMES SALMONELLA TYPHIMURIUM, Strain/Indicator: TA97, Metabolic Activation: RAT, LIVER, S-9, PHENOBARBITAL, Method: STANDARD PLATE) was “active; positive”; the mutagenic call (Test System: AMES SALMONELLA TYPHIMURIUM, Strain/Indicator: TA98, Metabolic Activation: RAT, LIVER, S-9, PHENOBARBITAL, Method: STANDARD PLATE) was “inactive; negative”; the mutagenic call (Test System: AMES SALMONELLA TYPHIMURIUM, Strain/Indicator: TA100, Metabolic Activation: RAT, LIVER, S-9, PHENOBARBITAL, Method: STANDARD PLATE) was “active; positive”; the mutagenic call (Test System: AMES SALMONELLA TYPHIMURIUM, Strain/Indicator: TA1535, Metabolic Activation: RAT, LIVER, S-9, PHENOBARBITAL, Method: STANDARD PLATE) is “inactive; negative”; the mutagenic call (Test System: AMES SALMONELLA TYPHIMURIUM, Strain/Indicator: TA1537, Metabolic Activation: RAT, LIVER, S-9, PHENOBARBITAL, Method: STANDARD PLATE) was “inactive; negative”; the mutagenic call (Test System: AMES SALMONELLA TYPHIMURIUM, Strain/Indicator: TA1538, Metabolic Activation: RAT, LIVER, S-9, PHENOBARBITAL, Method: STANDARD PLATE) is “inactive; negative”.
For `Clc1cccc(C2CO2)c1` (stereo unspecified), under “Test System: E. COLI, Strain/Indicator: WP2 UVRA, Metabolic Activation: NONE, Method: STANDARD PLATE”, the mutagenic call was “active; positive”.
As for `O=c1c(O)c(-c2ccc(O)cc2)oc2cc(O)cc(O)c12`, the mutagenic call is “inactive; negative” (Test System: AMES SALMONELLA TYPHIMURIUM, Strain/Indicator: TA97A, Metabolic Activation: NONE, Method: STANDARD PLATE); “active; positive” (Test System: AMES SALMONELLA TYPHIMURIUM, Strain/Indicator: TA97A, Metabolic Activation: RAT, LIVER, S-9, AROCLOR 1254, Method: STANDARD PLATE); “active; positive” (Test System: AMES SALMONELLA TYPHIMURIUM, Strain/Indicator: TA98, Metabolic Activation: HAMSTER, LIVER, S-9, AROCLOR 1254, Method: STANDARD PLATE); “inactive; negative” under setting [3]; “active; positive” (Test System: AMES SALMONELLA TYPHIMURIUM, Strain/Indicator: TA98, Metabolic Activation: RAT, LIVER, S-9, 5,6-BENZOFLAVONE AND/OR SODIUM PHENOBARBITAL, Method: PREINCUBATION); “active; positive” under setting [2]. For the same compound, the mutagenic call by setting is: (Test System: AMES SALMONELLA TYPHIMURIUM, Strain/Indicator: TA98, Metabolic Activation: RAT, LIVER, S-105, 5,6-BENZOFLAVONE AND/OR SODIUM PHENOBARBITAL, Method: PREINCUBATION) “inactive; negative”; under setting [4], “inactive; negative”; (Test System: AMES SALMONELLA TYPHIMURIUM, Strain/Indicator: TA102, Metabolic Activation: NONE, Method: STANDARD PLATE) “inactive; negative”; (Test System: AMES SALMONELLA TYPHIMURIUM, Strain/Indicator: TA102, Metabolic Activation: RAT, LIVER, S-9, AROCLOR 1254, Method: STANDARD PLATE) “active; positive”; (Test System: AMES SALMONELLA TYPHIMURIUM, Strain/Indicator: TA1535, Metabolic Activation: HAMSTER, LIVER, S-9, AROCLOR 1254, Method: STANDARD PLATE) “inactive; negative”; (Test System: AMES SALMONELLA TYPHIMURIUM, Strain/Indicator: TA1535, Metabolic Activation: NONE, Method: STANDARD PLATE) “inactive; negative”. The mutagenic call (Test System: AMES SALMONELLA TYPHIMURIUM, Strain/Indicator: TA1535, Metabolic Activation: RAT, LIVER, S-9, AROCLOR 1254, Method: STANDARD PLATE) was “inactive; negative”; the mutagenic call (Test System: AMES SALMONELLA TYPHIMURIUM, Strain/Indicator: TA1537, Metabolic Activation: HAMSTER, LIVER, S-9, AROCLOR 1254, Method: STANDARD PLATE) is “active; positive”; the mutagenic call (Test System: AMES SALMONELLA TYPHIMURIUM, Strain/Indicator: TA1537, Metabolic Activation: NONE, Method: STANDARD PLATE) was “inactive; negative”; the mutagenic call (Test System: AMES SALMONELLA TYPHIMURIUM, Strain/Indicator: TA1537, Metabolic Activation: RAT, LIVER, S-9, AROCLOR 1254, Method: STANDARD PLATE) was “active; positive”; the mutagenic call (Test System: MOUSE LYMPHOMA, Strain/Indicator: L5178Y (TK+/TK-), Metabolic Activation: NONE, Method: SUSPENSION/PLATE) is “active; positive. reevaluation of results: positive”; the mutagenic call (Test System: MOUSE LYMPHOMA, Strain/Indicator: L5178Y (TK+/TK-), Metabolic Activation: RAT, LIVER, S-9, AROCLOR 1254, Method: SUSPENSION/PLATE) was “active; positive. reevaluation of results: equivocal”.
Take `O=[N+]([O-])c1ccc2[nH]ccc2c1`: the mutagenic call under setting [3] was “active; positive”.
With `c1ccc2cc3c(ccc4cccnc43)cc2c1`, the mutagenic call is, setting by setting: under setting [3], “inactive; negative”; under setting [2], “active; positive”; under setting [4], “inactive; negative”; (Test System: AMES SALMONELLA TYPHIMURIUM, Strain/Indicator: TA100, Metabolic Activation: RAT, LIVER, S-9, AROCLOR 1254, Method: STANDARD PLATE) “inactive; negative”.
In the case of `O=P(OCCC(Br)CBr)(OCCC(Br)CBr)OCCC(Br)CBr` (stereo unspecified), the mutagenic call by setting is: (Test System: AMES SALMONELLA TYPHIMURIUM, Strain/Indicator: TA100, Metabolic Activation: RAT, LIVER, MICROSOMES, PHENOBARBITAL, Method: PREINCUBATION) “inactive; negative”; (Test System: AMES SALMONELLA TYPHIMURIUM, Strain/Indicator: TA100, Metabolic Activation: RAT, LIVER, MICROSOMES, Method: PREINCUBATION) “inactive; negative”.
Regarding `Oc1ccc2cccc(O)c2c1`, the mutagenic call (Test System: AMES SALMONELLA TYPHIMURIUM, Strain/Indicator: TA2637, Metabolic Activation: NONE, Method: PREINCUBATION) was “active; positive”.
As for `Cc1c[nH]c2ccccc12`, the mutagenic call under setting [1] is “inactive; negative” and the mutagenic call (Test System: AMES SALMONELLA TYPHIMURIUM, Strain/Indicator: TA100, Metabolic Activation: RAT LIVER S-9, PHENOBARBITOL/BETA-NAPHTHOFLAVONE, Method: PREINCUBATION) was “inactive; negative”.
